Measurements reported in patent US12318365B2, “Inhibition of dipeptide repeat proteins” (ALS Therapy Development Institute, priority 2019, dated 2025).
No end group written: not given here.

System: NSC-34 cells
Assay: Caspase-3 assay (apoptotic activity) in NSC-34 cells
Format: cell-based
Conditions: for DRP-induced apoptotic activity: DRP 0.01-3 μM, 24 h, compared to DMSO-treated controls
Source text: Caspase-3/CPP32 Assay: The caspase-3 assay is a fluorometric assay that measures apoptotic cell death. Apoptosis is a form of “programmed” cell death, in which a certain family of proteins inside the cell triggers a cascade of chemical reactions that result in the cell killing itself. One family of proteins involved in this process is the caspase protein family. Of the caspase proteins, caspase-2, 8, 9, and 10 are known as “initiators,” those that trigger the death cascade, and caspase-3, 6, and 7 are known as “executioners,” which carry out the actual killing of the cell. In a caspase-3 assay, cells treated with test compounds are lysed, and a substrate known as DEVD-AFC is added to the lysate. If active caspase-3 enzyme is present in the lysate, it will cleave AFC from the DEVD-AFC substrate, resulting in a fluorescent signal that can be quantified using a fluorescence microtiter plate reader. Thus, the apoptotic activity of cells treated with test compounds can be quantified. Greater fluorescence readings correspond to more apoptotic cell death.
Cells were plated in culture medium in 2 96-well plates at a density of 3.7×10^4 cells per well, and incubated overnight at 37° C., 5% CO2. The following day, immediately prior to addition of test compounds, existing culture medium was removed and replaced with staggered volumes of culture medium as in Example 1. A 10 mM stock of MS023 was thawed to room temperature and diluted as in Example 1. A 10 mM stock of GR15 (SEQ ID NO: 1) and a 10 mM stock of PR15 (SEQ ID NO: 2) were equilibrated to room temperature and diluted in warm culture medium to achieve a final concentration of 300 nM in wells.
The following conditions were plated in triplicate. Samples were surrounded by border wells on the outside of the plate filled with sterile Phosphate-buffered saline to prevent evaporation of volume in experimental wells during incubation; • Background (Culture medium only) • Untreated/“Cells Only” (Cells in culture medium) • DMSO Control (Cells treated only with the amount of DMSO that GR- and PR-treated cells were exposed to) • GR Only (Cells treated only with 300 nM GR15) (SEQ ID NO: 1) • Cells treated with […] GR15 (SEQ ID NO: 1) and one of the following doses of MS023: 60 μM, 30 μM, 10 μM, 3 μM, 1 μM. • PR Only (Cells treated only with 300 nM PR15) (SEQ ID NO: 2) • Cells treated with 300 nM PR15 (SEQ ID NO: 2) and one of the following doses of MS023: 60 μM, 30 μM, 10 μM, 3 μM, 1 μM. • Cells treated with only one of the following doses of MS023: 60 μM, 30 μM, 10 μM, 3 μM, 1 μM. • Positive controls (Cells treated with either 5 or 16 μM PAC-1 Caspase-3 activator)
Plates were incubated for 24 h at 37° C., 5% CO2. Cells were tested and data were analyzed using the procedure detailed in Caspase-3 assay kit instructions.
Cells were plated in culture medium in 2 96-well plates at a density of 3.7×10^4 cells per well, and incubated overnight at 37° C., 5% CO2. The following day, immediately prior to addition of test compounds, existing culture medium was removed and replaced with staggered volumes of culture medium as in Example 1. A 10 mM stock of MS023 was thawed to room temperature and diluted in warm culture medium to achieve final concentrations of 3, 1, 0.3, 0.1, 0.03, and 0.01 μM in plate. A 10 mM stock of GR15 (SEQ ID NO: 1) and a 10 mM stock of PR15 (SEQ ID NO: 2) were equilibrated to room temperature and diluted in warm culture medium to achieve a final concentration of 3 μM in wells.
The following conditions were plated in triplicate. […]

Row | Compound | DRP-induced apoptotic activity | dose dependence of abrogation of GR-induced apoptotic activity (300 nM GR15, 24 h, MS023 1-60 μM) | abrogation of GR-induced apoptotic activity (300 nM GR15, 24 h, doses 3 and 1 μM) | abrogation of GR-induced apoptotic activity (300 nM GR15, 24 h, doses 60, 30 and 10 μM) | dose dependence of abrogation of PR-induced apoptotic activity (300 nM PR15, 24 h, MS023 1-60 μM) | abrogation of PR-induced apoptotic activity (300 nM PR15, 24 h, all doses (1-60 μM)) | dose dependence of abrogation of GR-induced apoptotic activity (3 μM GR15, 24 h, MS023 0.01-3 μM) | abrogation of GR-induced apoptotic activity (3 μM GR15, 24 h, all doses (0.01-3 μM)) | abrogation of GR-induced apoptotic activity (3 μM GR15, 24 h, dose 3 μM) | dose dependence of abrogation of PR-induced apoptotic activity (3 μM PR15, 24 h, MS023 0.01-3 μM) | abrogation of PR-induced apoptotic activity (3 μM PR15, 24 h, all doses (0.01-3 μM)) | abrogation of PR-induced apoptotic activity (3 μM PR15, 24 h, dose 3 μM)
1 | PRPRPRPRPRPRPRPRPRPRPRPRPRPRPR [PR15] | producing the most significant amount of apoptotic activity |  |  |  |  |  |  |  |  |  |  | 
2 | GRGRGRGRGRGRGRGRGRGRGRGRGRGRGR [GR15] | producing the most significant amount of apoptotic activity |  |  |  |  |  |  |  |  |  |  | 
3 | CC(C)Oc1ccc(-c2c[nH]cc2CN(C)CCN)cc1 [MS023] |  | dose-dependently | fully abrogated | partially abrogated | dose-dependently | fully abrogated | dose-dependently abrogated | partially abrogated | fully abrogated | dose-dependently abrogated | partially abrogated | fully abrogated
